From patent US6779468B1, “Method and pharmaceutical composition for iron delivery in hemodialysis and peritoneal dialysis patients” (priority 1997, dated 2004)
Values joined by “and” are separate entries in the source; they are usually repeats but may differ in a detail not shown here. Identical values can stand only once. “Also recorded” adds a separate entry of the source.

Experiments:
[1] = Phase I/II clinical study of dialysate iron in maintenance hemodialysis patients; type: in vivo, human; conditions: for reticulocyte hemoglobin (Retic-Hgb): month 2
Experimental: All subjects in the study were receiving maintenance hemodialysis for end stage kidney failure, and requiring erythropoietin and intravenous iron to maintain hemoglobin in the 10-12 gm/dl range. After obtaining an informed consent, patients were enrolled and oral iron was discontinued. All patients received maintenance intravenous iron (50-100 mg every 1-2 weeks) during a 4 week long pre-treatment phase. The last two weeks of this pre-treatment period were used to establish the “Baseline” serum iron and hematological parameters. In the Treatment Phase, ten patients were dialyzed with iron containing dialysate (Dialysate-Fe group) for a period of 4 months. […] Eleven control patients (IV-Fe Group) continued to receive 50-200 mg iron intravenously every 1-2 weeks, for the entire study period of 6.5 months.
The initial doses were 50 mg elemental iron weekly.
Increased availability of iron to marrow cells may improve responsiveness to erythropoietin, thereby raising the hemoglobin and hematocrit. Hemoglobin and hematocrit were monitored every week, and in the event of improved erythropoiesis, the doses of erythropoietin were reduced by 10% every two weeks or as needed, to maintain a stable hemoglobin.
According to the National Kidney Foundation-Dialysis Outcomes Quality Initiative (NKF-DOQI) recommendations, most hemodialysis patients should be administered intravenous iron with every dialysis session or every 1-2 weeks (maintenance therapy). […] This was the basis why the control group was maintained on regular doses of intravenous iron, while oral iron was discontinued. This being the standard of care, the subjects on maintenance intravenous iron (IV-Fe Group) served as the control against the experimental group receiving dialysate iron therapy (Dialysate-Fe Group).
A random number generator was used to generate a list of 24 numbers. Odd and even numbers were assigned A or B designation respectively. A list of 23 patients was created based on the order in which consent was obtained for participation in the study. Patients were assigned to groups A or B based on their order in the list.
When a relative iron deficiency was suspected bolus doses of 100-200 mg iron were administered intravenously with each dialysis, over 1-5 consecutive dialysis sessions.
Based on the NKF-DOQI guidelines, patients in IV-Fe group were prescribed maintenance amount of intravenous iron from 25 to 100 mg/week. When a relative iron deficiency was suspected, bolus doses of 100-200 mg iron were administered intravenously with each dialysis, over 5-10 consecutive dialysis sessions.
Except for plotting of individual patient variables over time, the iron study data has been summarized prior to analysis. Descriptive analysis was performed. Most of the analysis presented here, uses the data averaged over four or six/seven week intervals. A four week interval corresponds to the length of time each dose level was used during the dose escalation phase of the study. […] (See Figures 4-21)
The baseline period, labeled month 0, included data for the four weeks immediately prior to the start of the intervention. (There was some data available for some or all the fifth week prior to the intervention, but data from this week is omitted from the formal data analysis.)
Weeks 1 to 4, when the dialysate dose of 2 μg/dl was employed, are labeled month 1, weeks 5 to 8 labeled month 2, weeks 9 to 12 labeled ‘month 3’, weeks 13 to 16 labeled month 4, weeks 17 to 20 labeled month 5, and weeks 21 to 26 (or 27) are labeled month 6.

[2] = literature reports; cited from earlier work
[3] = baseline, before treatment phase

| Compound | TIBC adjusted for the baseline values, versus IV-Fe group ([1]; at 6 months, p<0.05) | serum ferritin (mean±S.D.) [1, 3] | total iron binding capacity (TIBC, mean±S.D.) [1, 3] | hematocrit cycling ([1]; dialysate route during every dialysis session) | reticulocyte hemoglobin (Retic-Hgb) [1] | average weekly dose of intravenous iron ([1]; month 6) | patients requiring additional intravenous iron supplements ([1]; month 6) | serum ferritin (mean±S.D.) ([1]; month 6) | maintenance of hemoglobin ([1]; over a period of 6 months) | patients in whom iron balance is maintained without supplemental oral or intravenous iron ([1]; over a period of 6 months) | reduction of requirements for intravenous iron ([1]; over a period of 6 months) | average weekly dose of intravenous iron ([1]; pretreatment period (month 0, baseline), all patients on maintenance intravenous iron) | requirement for intravenous iron ([1]; p≦0.002 with 8-12 μg/dl dialysate iron) | serum Fe and transferrin saturation (at 30 minutes of peritoneal dialysis, dialysate iron 500 μg/dl, day 21, P<0.03) | time for mean serum iron and transferrin saturation to increase into the normal range (iron deficient rabbits, dialysate iron 500 μg/dl, day 21) | duration of increase in serum iron and transferrin saturation (peritoneal dialysis for a total of 2 hours) | average weekly dose of intravenous iron ([1]; pretreatment period (month 0, baseline), all patients on maintenance intravenous iron, listed as IV-Fe) | hypocalcemia / toxic effects [2] |
| --- | --- | --- | --- | --- | --- | --- | --- | --- | --- | --- | --- | --- | --- | --- | --- | --- | --- | --- |
| Ferric pyrophosphate | significantly higher | 154 ± 120 µg/L | 222.3 ± 43.8 µg/dL | abolishes hematocrit cycling | 28.4 ± 0.9 pg | 8.9 mg | 2 out of the 10 | 154 ± 120 µg/L | maintains hemoglobin without an increase in erythropoietin requirement | approximately 80% | about 80% | 68.7 mg | significantly reduced; also recorded: decline in intravenous iron requirement | significant increase | ≤ 30 min | sustained for the duration of the experiment |  |  |
| iron dextran [reference compound] |  | 261 ± 211 µg/L | 192.7 ± 48.1 µg/dL |  | 27.0 ± 1.0 pg | 56.2 mg |  | 261 ± 211 µg/L |  |  |  |  |  |  |  |  | 59.6 mg and 68.7 mg |  |
| O=P([O-])([O-])OP(=O)([O-])[O-].[Sn+2].[Sn+2] [stannous pyrophosphate] |  |  |  |  |  |  |  |  |  |  |  |  |  |  |  |  |  | hypocalcemia and immediate toxic effects |
